Like-named read-outs stand apart in the source and are kept apart here.
Legend:
[1] = target: T1, discoidin domain receptor tyrosine kinase 2 (DDR2) (Homo sapiens, UniProt Q16832); test: panel of 189 kinase assays; assay type: biochemical
T1 sequence (Q16832 22-855): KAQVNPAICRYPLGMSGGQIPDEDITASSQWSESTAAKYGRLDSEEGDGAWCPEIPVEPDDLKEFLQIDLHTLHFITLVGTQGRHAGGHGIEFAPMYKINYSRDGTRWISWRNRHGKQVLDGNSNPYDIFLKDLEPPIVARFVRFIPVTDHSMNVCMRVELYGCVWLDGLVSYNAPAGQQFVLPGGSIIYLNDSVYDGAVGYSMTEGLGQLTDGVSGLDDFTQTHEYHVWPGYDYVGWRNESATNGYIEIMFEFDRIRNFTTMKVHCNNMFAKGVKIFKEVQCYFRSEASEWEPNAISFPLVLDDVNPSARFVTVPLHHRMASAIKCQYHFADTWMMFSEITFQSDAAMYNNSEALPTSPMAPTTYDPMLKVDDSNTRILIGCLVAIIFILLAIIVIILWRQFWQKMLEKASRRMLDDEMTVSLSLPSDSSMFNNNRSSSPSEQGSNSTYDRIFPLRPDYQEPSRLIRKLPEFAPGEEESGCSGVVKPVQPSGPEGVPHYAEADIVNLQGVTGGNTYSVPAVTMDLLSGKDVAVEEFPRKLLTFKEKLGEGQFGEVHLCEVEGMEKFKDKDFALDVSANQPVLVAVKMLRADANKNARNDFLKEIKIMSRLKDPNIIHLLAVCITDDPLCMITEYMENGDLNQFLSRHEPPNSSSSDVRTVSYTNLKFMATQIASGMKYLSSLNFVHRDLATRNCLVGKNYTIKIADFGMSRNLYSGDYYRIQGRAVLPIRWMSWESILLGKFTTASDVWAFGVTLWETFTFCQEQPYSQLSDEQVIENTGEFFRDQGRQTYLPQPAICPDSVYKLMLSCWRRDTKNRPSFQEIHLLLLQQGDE

[2] = Pharmacokinetic profile and brain distribution in rats after oral administration; assay type: in vivo, rats (SD); conditions: for Kp / Cmax / Tmax / AUC(0-t) / MRT last / half-life / AUC(0-inf): rat
Experimental: Example 2 evaluated pharmacokinetic profile and brain distribution of belvarafenib in rats after oral administration.
The rat strain was SD supplied by Orient Bio Inc., Korea.
The rats were kept in conventional animal lab cages for 5 days for acclimation before the start of the experiment. The cages were polysulfone 1291H (W425×D266×H185 mm, Techniplast, Italy). Three rats were housed in each cage at a temperature of 22±2° C., a relative humidity of 50±20%, a ventilation frequency of 10-15 times/h, a 12 hour light/dark cycle, a light intensity of 150-300 Lux, at least weekly cage replacement. The mice were fed Picolab Rodent diet (5053, Lab Diet, USA) with abundant tap water.
The rats were dosed with belvarafenib dihydrochloride, 99.6% purity, that was stored at room temperature. Dosing was based on active ingredient free base and was corrected for assay and water content. The dosing vehicle was DMSO (10%), PEG 400 (50%), and deionized water (40%). Belvarafenib for dosing (169.51 mg) was dissolved in 86.93 mL of the vehicle for a final concentration of 1.950 mg/mL.
In a single one day dosing regimen, rats were fasted overnight. The body weight of the rats was measured on the day of treatment, from which dosing volumes were set. […] The rats were fed 4 hours post-dose.
Blood (0.3 mL) was collected from the abdominal artery at 0.5, 1, 2, 4, 7, 24, 48, and 72 hours after belvarafenib administration. Plasma was obtained by centrifugation at 12,000 rpm for 2 minutes (Eppendorf) and then harvested and stored at −20° C. (Panasonic, MDF-U334-PK) until analysis.
After bloodletting of rats at each time point, the brain was collected immediately without perfusion. Brain tissue was washed one to two times with saline to remove surface blood. The brains were then trimmed. The collected brain tissue was accurately weighed and mixed with 4-fold saline based on brain weight (a final dilution factor of 5-fold). Each brain sample was then homogenized and placed in a 1.5 mL tube and stored at −20° C. (Panasonic, MDF-U334-PK) until analysis.
Plasma and brain of untreated animals were similarly obtained for use as a blank matrix.
Plasma and brain concentrations of belvarafenib determined by analysis using LC-MS/MS (Waters UPLC H-Class/Xevo TQ (Waters USA)).
Pharmacokinetic parameters of belvarafenib were calculated from plasma and brain concentration-time data by a non-compartmental method using Phoenix™ WinNonlin 8.1 (Certara, USA). The peak plasma and brain concentration (Cmax) and the corresponding time (Tmax) were directly obtained from the raw data. The area under the plasma curve (AUClast) was obtained by linear-log trapezoidal summation. Other PK parameters such as AUC from dosing time extrapolated to infinity (AUCinf), half-life (t1/2) and mean residence time (MTRlast) were calculated using WinNonlin. The plasma and brain concentrations of belvarafenib were presented as MEAN±S.D. The brain to plasma (B/P) ratio of Belvarafenib was calculated by dividing AUClast in the brain by AUClast in the plasma.

[3] = SD (Sprague-Dawley), oral 30 mg/kg, brain
[4] = SD (Sprague-Dawley), oral 30 mg/kg, plasma
[5] = male, SD, oral 15 mg/kg, plasma

## Cc1ccc2c(Nc3cccc(Cl)c3F)nccc2c1NC(=O)c1csc2c(N)ncnc12 [Belvarafenib, 4-amino-N-(1-((3-chloro-2-fluorophenyl)amino)-6-methylisoquinolin-5-yl)thieno[3,2-d]pyrimidine-7-carboxamide]
[1]
  inhibition at 1 µM: > 90%
[2]; SD (Sprague-Dawley), oral 30 mg/kg, AUClast brain / AUClast plasma, read-out: B/P ratio
  Kp: 1.2
[2]; [3]
  Cmax: 4880 ng/g
  Tmax: 7 h
[2]; [4]
  AUC(0-t): 98000 ng·h/mL
  Cmax: 4150 ng/mL
  Tmax: 7 h
[2]; SD, oral 30 mg/kg, AUClast brain / AUClast plasma, read-out: B/P ratio
  Kp: 1.2
[2]; SD, oral 30 mg/kg, brain
  Tmax: 4 h
[2]; male, SD, brain/plasma, oral, 15 mg/kg, read-out: B/P
  Kp: 1.38
[2]; male, SD, oral 15 mg/kg, AUClast brain / AUClast plasma, read-out: B/P ratio
  Kp: 1.38
[2]; male, SD, oral 15 mg/kg, brain
  Cmax: 3910 ng/g
  MRT last: 15.5 h
  Tmax: 7 h
  half-life: 9 h
[2]; [5]
  AUC(0-inf): 50600 ng·h/mL
  AUC(0-t): 49400 ng·h/mL
  Cmax: 2130 ng/mL
  MRT last: 18 h
  Tmax: 4 h
  half-life: 12.5 h
[2]; male, SD, oral 30 mg/kg, plasma
  AUC(0-inf): 100000 ng·h/mL
[2]; oral 15 mg/kg, brain
  AUCinf: 68350.0 ng·h/g
  AUClast: 67954.7 ng·h/g
[2]; oral 30 mg/kg, brain
  AUCinf: 115222.3 ng·h/g
  AUClast: 113670.1 ng·h/g
[2]; single oral 15 mg/kg, pre- and post-dosing periods
  general clinical signs: No clinical signs were observed

From patent US20240173329A1, “BELVARAFENIB FOR USE IN TREATMENT OF BRAIN CANCERS” (Genentech, Inc., priority 2021, published 2024)
